Earlier results on one molecule are cited in PubChem BioAssay AID1259409 (Chemical Carcinogenesis Research Information System (CCRIS), 2018).

The subject of the data set is rodent chemically induced tumor inhibition, incidence and multiplicity. Briefly: CCRIS tumor inhibitor studies.

Values joined by “and” are separate entries in the source; they are usually repeats but may differ in a detail not shown here. Equal values may be shown once.

As for `S=C=NCc1ccccc1`, the “tumour outcome (control, treated, inhibition, significance)” value is given as 9/9 (100%), 14/14 (100%), 0%, not significant (Carcinogen: 1,2-DIMETHYLHYDRAZINE, 540-73-8, Dose [Inhibitor]: 1.25 MG/G IN DIET FOR 17 WK (STUDY DURATION: 36 WK), Route [Inhibitor]: ORAL, Species: MOUSE, Strain/Sex: CF1/FEMALE, Target Tissue: Type of Lesion: LARGE INTESTINE: TUMOR, Dose [Carcinogen]: 0.7 MG IN 0.2 ML EDTA SOLUTION ADMINISTERED 8 D AFTER INHIBITOR DIET STARTED AND CONTINUED 1/WK FOR 16 WK, Promoter: NONE USED); 23/31 (74%), 20/32 (63%), 15%, not significant (Carcinogen: 2-AMINO-1-METHYL-6-PHENYLIMIDAZO[4,5-B]PYRIDINE, 105650-23-5, Dose [Inhibitor]: 0, 400 PPM IN HIGH FAT DIET FOR DURATION OF STUDY BEGINNING 1 WK PRIOR TO CARCINOGEN TREATMENT (STUDY DURATION: 31 WK), Route [Inhibitor]: ORAL, Species: RAT, Strain/Sex: SPRAGUE-DAWLEY/FEMALE, Target Tissue: Type of Lesion: MAMMARY GLAND: ADENOCARCINOMA, Dose [Carcinogen]: 100 MG/KG BW 1/2 D FOR 16 D, Promoter: NONE USED); 100%, 100%, 0%, not calculated (Carcinogen: 4-(METHYLNITROSAMINO)-1-(3-PYRIDYL)-1-BUTANONE [64091-91-4], BENZO[A]PYRENE [50-32-8], Dose [Inhibitor]: 1 UMOL/G IN DIET FOR 10 WK BEGINNING 1 WK PRIOR TO FIRST CARCINOGEN DOSE (STUDY DURATION: 28 WK), Route [Inhibitor]: ORAL, Species: MOUSE, Strain/Sex: A/J/FEMALE, Target Tissue: Type of Lesion: LUNG: TUMOR, Dose [Carcinogen]: 3 UMOL BAP + 3 UMOL NNK IN 0.1 ML COTTONSEED OIL 1X/WK FOR 8 WK (STUDY DURATION: 28 WK), Promoter: NONE); 100%, 100%, 0%, not calculated (Carcinogen: 4-(METHYLNITROSAMINO)-1-(3-PYRIDYL)-1-BUTANONE [64091-91-4], BENZO[A]PYRENE [50-32-8], Dose [Inhibitor]: 6 UMOL IN 0.1 ML COTTONSEED OIL 1/WK FOR 8 WK 2 HR PRIOR TO EACH CARCINOGEN DOSE (STUDY DURATION: 16 WK), Route [Inhibitor]: GAVAGE, Species: MOUSE, Strain/Sex: A/J/FEMALE, Target Tissue: Type of Lesion: LUNG: TUMOR, Dose [Carcinogen]: 3 UMOL BAP + 3 UMOL NNK IN 0.1 ML COTTONSEED OIL 1X/WK FOR 8 WK (STUDY DURATION: 16 WK), Promoter: NONE); 100%, 100%, 0%, not significant (Carcinogen: 4-(METHYLNITROSAMINO)-1-(3-PYRIDYL)-1-BUTANONE, 64091-91-4, Dose [Inhibitor]: 0, 1 UMOL/G DIET FOR 15 WK BEGINNING 1 WK POST CARCINOGEN DOSE (STUDY DURATION: 16 WK), Route [Inhibitor]: ORAL, Species: MOUSE, Strain/Sex: STRAIN-A/FEMALE, Target Tissue: Type of Lesion: LUNG: ADENOMA, Dose [Carcinogen]: 10 UMOL ONCE, Promoter: NONE USED); 100%, 100%, 0%, not significant (Carcinogen: 4-(METHYLNITROSAMINO)-1-(3-PYRIDYL)-1-BUTANONE, 64091-91-4, Dose [Inhibitor]: 0, 3 UMOL/G DIET FOR 15 WK BEGINNING 1 WK POST CARCINOGEN DOSE (STUDY DURATION: 16 WK), Route [Inhibitor]: ORAL, Species: MOUSE, Strain/Sex: STRAIN-A/FEMALE, Target Tissue: Type of Lesion: LUNG: ADENOMA, Dose [Carcinogen]: 10 UMOL ONCE, Promoter: NONE USED). The “tumour outcome (control, treated, inhibition, significance)” value reads like this: (Carcinogen: 4-(METHYLNITROSAMINO)-1-(3-PYRIDYL)-1-BUTANONE, 64091-91-4, Dose [Inhibitor]: 0, 5 UMOL 1/D FOR 4 D ADMINISTERED PRIOR TO CARCINOGEN DOSE (STUDY DURATION: 116 D), Route [Inhibitor]: GAVAGE, Species: MOUSE, Strain/Sex: STRAIN-A, Target Tissue: Type of Lesion: LUNG: ADENOMA, Dose [Carcinogen]: 10 UMOL IN SALINE ADMINISTERED 2 HR POST LAST AGENT DOSE, Promoter: NONE USED) 100%, 100%, 0%; (Carcinogen: 4-(METHYLNITROSAMINO)-1-(3-PYRIDYL)-1-BUTANONE, 64091-91-4, Dose [Inhibitor]: 0, 5 UMOL/D FOR 4 CONSECUTIVE DAYS (STUDY DURATION: 17 WK), Route [Inhibitor]: GAVAGE, Species: MOUSE, Strain/Sex: STRAIN-A/FEMALE, Target Tissue: Type of Lesion: LUNG: ADENOMA, Dose [Carcinogen]: 10 UMOL ONCE 2 HR POST LAST AGENT DOSE, Promoter: NONE USED) 100%, 100%, 0%, not significant; (Carcinogen: 4-(METHYLNITROSAMINO)-1-(3-PYRIDYL)-1-BUTANONE, 64091-91-4, Dose [Inhibitor]: 5 UMOL/D FOR 4 CONSECUTIVE DAYS (STUDY DURATION: 16 WK), Route [Inhibitor]: GAVAGE, Species: MOUSE, Strain/Sex: STRAIN-A/FEMALE, Target Tissue: Type of Lesion: LUNG: ADENOMA, Dose [Carcinogen]: 10 UMOL ONCE 2 HR POST LAST AGENT DOSE, Promoter: NONE USED) 30/30 (100%), 30/30 (100%), 0%; (Carcinogen: 4-(N-NITROSOMETHYLAMINO)-1-(3-PYRIDYL)-1-BUTANONE, 64091-91-4, Dose [Inhibitor]: 0, 5 UMOL/D FOR 4 CONSECUTIVE DAYS (STUDY DURATION: 16.5 WK), Route [Inhibitor]: GAVAGE, Species: MOUSE, Strain/Sex: STRAIN-A/FEMALE, Target Tissue: Type of Lesion: LUNG: ADENOMA, Dose [Carcinogen]: 10 UMOL ONCE 2 HR POST LAST AGENT DOSE, Promoter: NONE USED) 100%, 100%, 0%, not significant; (Carcinogen: 4-METHYLNITROSAMINO)-1-(3-PYRIDYL)-1-BUTANONE, 64091-91-4, Dose [Inhibitor]: 0, 5 UMOL 1/D FOR 4 D ADMINISTERED PRIOR TO CARCINOGEN TREATMENT (STUDY DURATION: 116 D), Route [Inhibitor]: GAVAGE, Species: MOUSE, Strain/Sex: STRAIN A, Target Tissue: Type of Lesion: LUNG: ADENOMA, Dose [Carcinogen]: 10 UMOL ONCE 2 HR AFTER FINAL DOSE OF INHIBITOR, Promoter: NONE USED) 100%, 100%, 0%, not significant; (Carcinogen: 7,12-DIMETHYLBENZ[A]ANTHRACENE, 57-97-6, Dose [Inhibitor]: 0.017 MMOL/G IN DIET BEGINNING 1 WK AFTER CARCINOGEN ADMINISTRATION (STUDY DURATION: 28 WK), Route [Inhibitor]: ORAL, Species: RAT, Strain/Sex: SPRAGUE-DAWLEY/FEMALE, Target Tissue: Type of Lesion: MAMMARY GLAND: TUMOR, Dose [Carcinogen]: 12 MG DMBA IN 1.0 ML OLIVE OIL ONCE, Promoter: NONE USED) 100%, 63%, 37%, p<0.001. Besides, the “tumour outcome (control, treated, inhibition, significance)” value is, setting by setting: (Carcinogen: 7,12-DIMETHYLBENZ[A]ANTHRACENE, 57-97-6, Dose [Inhibitor]: 5.0 MG/G DIET AT AGE 9 WK SIMULTANEOUSLY WITH CARCINOGEN, 3/WK FOR 4 WK (STUDY DURATION: 20 WK), Route [Inhibitor]: ORAL, Species: MOUSE, Strain/Sex: ICR/FEMALE, Target Tissue: Type of Lesion: LUNG: ADENOMA, Dose [Carcinogen]: 0.05 MG/G DIET AT AGE 9 WK, 3/WK FOR 4 WK, Promoter: NONE USED) 95%, 93%, 2%, not significant; (Carcinogen: 7,12-DIMETHYLBENZ[A]ANTHRACENE, 57-97-6, Dose [Inhibitor]: 5 MG/G DIET AT AGE 9 WK SIMULTANEOUSLY WITH CARCINOGEN, 3/WK FOR 6 WK (STUDY DURATION: 20 WK), Route [Inhibitor]: ORAL, Species: MOUSE, Strain/Sex: ICR/FEMALE, Target Tissue: Type of Lesion: FORESTOMACH: TUMOR, Dose [Carcinogen]: 0.05 MG/G DIET AT AGE 9 WK, 3/WK FOR 4 WK, Promoter: NONE USED) 87%, 5%, 94%, p<0.01; (Carcinogen: 7,12-DIMETHYLBENZ[A]ANTHRACENE, 57-97-6, Dose [Inhibitor]: 25 MG ONCE 2 HR BEFORE DMBA TREATMENT (STUDY DURATION: 18 WK), Route [Inhibitor]: INTRAGASTRIC, Species: RAT, Strain/Sex: SPRAGUE-DAWLEY/FEMALE, Target Tissue: Type of Lesion: MAMMARY GLAND: TUMOR, Dose [Carcinogen]: 12 MG IN 1 ML OLIVE OIL AT AGE 7 WK 2 HR AFTER AGENT TREATMENT, Promoter: NONE USED) 77%, 54%, 30%, not significant; (Carcinogen: 7,12-DIMETHYLBENZ[A]ANTHRACENE, 57-97-6, Dose [Inhibitor]: 25 MG ONCE 4 HR BEFORE DMBA TREATMENT (STUDY DURATION: 18 WK), Route [Inhibitor]: INTRAGASTRIC, Species: RAT, Strain/Sex: SPRAGUE-DAWLEY/FEMALE, Target Tissue: Type of Lesion: MAMMARY GLAND: TUMOR, Dose [Carcinogen]: 12 MG IN 1 ML OLIVE OIL AT AGE 7 WK 4 HR AFTER AGENT TREATMENT, Promoter: NONE USED) 86%, 50%, 42%, p<0.05; (Carcinogen: 7,12-DIMETHYLBENZ[A]ANTHRACENE, 57-97-6, Dose [Inhibitor]: 50 MG ONCE 2 HR BEFORE DMBA TREATMENT (STUDY DURATION: 18 WK), Route [Inhibitor]: INTRAGASTRIC, Species: RAT, Strain/Sex: SPRAGUE-DAWLEY/FEMALE, Target Tissue: Type of Lesion: MAMMARY GLAND: TUMOR, Dose [Carcinogen]: 12 MG IN 1 ML OLIVE OIL AT AGE 7 WK 2 HR AFTER AGENT TREATMENT, Promoter: NONE USED) 77%, 8%, 90%, p<0.001; (Carcinogen: 7,12-DIMETHYLBENZ[A]ANTHRACENE, 57-97-6, Dose [Inhibitor]: 50 MG ONCE 4 HR AFTER DMBA TREATMENT (STUDY DURATION: 18 WK), Route [Inhibitor]: INTRAGASTRIC, Species: RAT, Strain/Sex: SPRAGUE-DAWLEY/FEMALE, Target Tissue: Type of Lesion: MAMMARY GLAND: TUMOR, Dose [Carcinogen]: 12 MG IN 1 ML OLIVE OIL AT AGE 7 WK 4 HR BEFORE AGENT TREATMENT, Promoter: NONE USED) 71%, 62%, 13%, not significant. The “tumour outcome (control, treated, inhibition, significance)” value (Carcinogen: 7,12-DIMETHYLBENZ[A]ANTHRACENE, 57-97-6, Dose [Inhibitor]: 50 MG ONCE 4 HR BEFORE DMBA TREATMENT (STUDY DURATION: 18 WK), Route [Inhibitor]: INTRAGASTRIC, Species: RAT, Strain/Sex: SPRAGUE-DAWLEY/FEMALE, Target Tissue: Type of Lesion: MAMMARY GLAND: TUMOR, Dose [Carcinogen]: 12 MG IN 1 ML OLIVE OIL AT AGE 7 WK 4 HR AFTER AGENT TREATMENT, Promoter: NONE USED) was 100%, 21%, 79%, p<0.001 and 85%, 23%, 73%, p<0.01.
